“Also recorded” adds a separate entry of the source.
How the values were obtained:
TIGR gene = assay: Induction of the TIGR gene by stress stimulants; type: cell-based
[1] = IOP response to topical dexamethasone eye drops, Armaly criteria; type: in vivo, human; conditions: topical dexamethasone eye drops (0.1%) four times a day for four weeks; one line per subject (subjects 1-7); pre- vs post-treatment IOP
Description: Subjects are given standard topical dexamethasone eye drops (0.1%) four times a day, for four weeks. Pre-treatment and post-treatment IOP readings are taken and patients are classified as having high (>16 mmHg), intermediate (6-16 mmHg) or low (<6 mmHg) IOP responses under the “Armaly” criteria. DNA samples are obtained from four subjects having high or intermediate IOP changes. Samples from several non-responder patients were also taken. The DNA samples were analyzed for the presence of the TIGRmt11 variant sequence, as discussed above.

HTM cells = assay: TIGR 5′ region/promoter AP reporter activity in HTM cells; type: cell-based, human; conditions: attached reporter gene
Description: The 283 base 5′ fragment of the TIGR 5′ region (SEQ ID NO: 37) is amplified from genomic DNA of a normal human subject as discusssed in Example 3. The DNA is cloned into a pSEAP vector (Clontech, Calif.) so that transcription was under the control of the TIGR sequences. More specifically, pSEAP2-enhancer vector is digested with Srfl to produce a blunt end. The 283 bp fragment is blunt end ligated to the vector using T4 ligase for 2 hours. The vector is transfected into DH5 cells to establish a plasmid clone, TMRE-1/pSEAP. PCR sequencing is used to verify the clone sequence as correct. Similarly, the equivalent genomic fragment amplified from a steroid responder sample, identified as mutant TIGR.mt11, is cloned in pSEAP2-enhancer and called clone TIGR.mt11/pSEAP.
HTM cells, Cos cells (COS-7), and HeLa cells (HeLa 229) are seeded at 10^6 cells per well and incubated with 1 ug of the plasmid DNA to transfect using Lipofectin reagent (GIBCO, Life Technologies, Md.). Some samples of cells were also treated with dexamethasone (DEX). Then, 24, 48, and 72 hours after transfection, AP activity was measured. Cells are collected using a buffer containing L-homoarginine and the chemiluminescent substrate CSPD and a chemiluminescent enhancer added to the samples. The expression levels are then recorded using a luminometer or by brief exposure to X-ray film. […]

Molecule | induction of TIGR gene (TIGR gene) | other results
CCCCCCCCCCCCCC(=O)O[C@@H]1[C@@H](C)[C@@]2(O)[C@@H](C=C(CO)C[C@]3(O)C(=O)C(C)=C[C@@H]23)[C@H]2C(C)(C)[C@]12OC(C)=O [TPA, 12-O-tetradecanolyphorbol-13-acetate] | induced | –
OO [H2O2] | induced | –
C[C@@H]1C[C@H]2[C@@H]3CCC4=CC(=O)C=C[C@]4(C)[C@@]3(F)[C@@H](O)C[C@]2(C)[C@@]1(O)C(=O)CO [dexamethasone] | – | CS-IOP Response [1]: Low (low (<6 mmHg)); also recorded: Intermediate (intermediate (6-16 mmHg)); also recorded: High (high (>16 mmHg))
SEQ ID NO: 37: 283 bp region from 5340 to 5044 of SEQ ID NO: 3, TIGR 5′ regulatory region (nucleic acid, listed as Homo sapiens) DNA: AACTATTATTGGGGTATGGGTGCATAAATTGGGATGTTCTTTTTAAAAAGAAACTCCAAACAGACTTCTGGAAGGTTATTTTCTAAGAATCTTGCTGGCAGCGTGAAGGCAACCCCCCTGTGCACAGCCCCACCCAGCCTCACGTGGCCACCTCTGTCTTCCCCCATGAAGGGCTGGCTCCCCAGTATATATAAACCTCTCTGGAGCTCGGGCATGAGCCAGCAAGGCCACCCATCCAGGCACCTCTCAGCACAGCAGAGCTTTCCAGAGGAAGCCTCACCAA | – | expression of AP activity, HTM cells compared with HeLa or Cos cells (HTM cells): much higher

Source: patent US6475724B1, “Nucleic acids, kits, and methods for the diagnosis, prognosis and treatment of glaucoma and related disorders” (The Regents of the University of California, priority 1997, dated 2002)
